Where two headings read alike, the source gives them in different places.
Experiments:
Experiment in all cases: standard disc-plate method, zone of inhibition
Type in all cases: cell-based
Proteus vulgaris = conditions: Table IV, read-out: Zone of Inhibition (diameter in mm)
Description: (§1) The in vitro antimicrobial activity of the 3-halo cephalosporins is illustrated by the data in the following tables. Table I contains the antimicrobial activity for 7-[2-(2-thienyl)acetamido]-3-chloro-3-cephem-4-carboxylic acid obtained in the standard Disc-plate method. The numerical values are the diameter in millimeters of the zones of inhibition observed with the named organisms.
(§2) In Table IV below, the in vitro antimicrobial activity of 7-[2-(2-thienyl)acetamido]-3-bromo-3-cephem-4-carboxylic acid is presented for several illustrative microorganisms. The data presented were obtained in the standard disc-plate method with the numerical values recording the diameter in millimeters of the zones of inhibition observed with the named microorganisms.

Escherichia coli = conditions: Table IV, read-out: Zone of Inhibition (diameter in mm); for zone of inhibition at 100 µg/mL: 0.1 mg./ml.; for zone of inhibition at 1000 µg/mL: 1.0 mg./ml.
Description: as §1, §2

Sarcina lutea = conditions: Micrococcus luteus, Table IV, read-out: Zone of Inhibition (diameter in mm)
Description: as §1, §2

O=C(Cc1cccs1)NC1C(=O)N2C(C(=O)O)=C(Br)CS[C@H]12 (some centres unmarked) [7-[2-(2-Thienyl)acetamido]-3-bromo-3-cephem-4-carboxylic acid]
zone of inhibition at 10 µg/mL (Proteus vulgaris; 0.01 mg./ml., hazy zone (h)): 11 mm
zone of inhibition at 100 µg/mL (Proteus vulgaris; 0.1 mg./ml.): 20 mm
zone of inhibition at 1000 µg/mL (Proteus vulgaris; 1.0 mg./ml.): 28 mm
zone of inhibition at 10 µg/mL (Escherichia coli; 0.01 mg./ml., Synthetic medium, hazy zone (h)): 11 mm
zone of inhibition at 100 µg/mL (Escherichia coli; Synthetic medium): 18 mm
zone of inhibition at 100 µg/mL (Escherichia coli): 14 mm
zone of inhibition at 1000 µg/mL (Escherichia coli; Synthetic medium): 27 mm
zone of inhibition at 1000 µg/mL (Escherichia coli): 23 mm
zone of inhibition at 10 µg/mL (Sarcina lutea; 0.01 mg./ml.): 17 mm
zone of inhibition at 100 µg/mL (Sarcina lutea; 0.1 mg./ml.): 33 mm
zone of inhibition at 1000 µg/mL (Sarcina lutea; 1.0 mg./ml.): 32 mm
